Where two headings read alike, the source gives them in different places.
How the values were obtained:
[1] = test system: NCI-H460 cells; experiment: Cell colony formation (clonogenic) assay; assay type: cell-based, human
Method: For the colony formation assay, cells were treated with indicated concentrations of AGB for 8 h, then AGB was then removed and 200 cells were trypsinized and seeded into a new 12-well cell culture plate containing 1.5 ml of complete cell growth medium. After cells were grown for 14 days, cells were then fixed with ethanol followed a staining by crystal violet (0.05%, w/v, in water) for 15 min. The cell colonies were captured under the microscope and the number of colonies was calculated by ImageJ (version 1.50i, NIH, USA, internet site imagej.nih.gov).

[2] = test system: NCI-H460 spheres; experiment: Sphere formation assay (tumorsphere self-renewal); assay type: cell-based; conditions: Homo sapiens, read-out: tumorsphere forming efficiency, inhibition; for inhibition at 1 µM: 1.0 μM AGB
Method: NCI-H460 cells were seeded at 3,000 cells/ml per well in specific sphere formation medium (DMEM/F12 supplemented with 20 ng/ml EGF, 20 ng/ml bFGF and 1×B-27) with or without AGB (DMSO as vehicle, 0.5 and 1.0 μM of AGB for the assay) in a 6-well Ultra Low Cluster Plate (Costar®). The concentration of DMSO was normalized to 0.5% in all wells and was 0.5%. The cells were incubated at 37° C. for five days and the spheres were photographed under an inverted microscope at 40× magnification. Primary tummorsphere were collected and enzymatically dissociated using trypsin to generate the secondary tummorsphere. The dissociated cells were re-plated at a density of 2,000 cells/mL for subsequent passages. The images were captured and four fields were randomly chosen and the relative areas occupied by the spheres were measured using ImageJ (National Institutes of Health, Bethesda, MD). Representative images were obtained from three independent experiments.

[3] = biological target: T1, CS (Homo sapiens, UniProt O75390); experiment: CS catalytic activity; assay type: biochemical; conditions: dose-dependent
T1 sequence (O75390 28-466): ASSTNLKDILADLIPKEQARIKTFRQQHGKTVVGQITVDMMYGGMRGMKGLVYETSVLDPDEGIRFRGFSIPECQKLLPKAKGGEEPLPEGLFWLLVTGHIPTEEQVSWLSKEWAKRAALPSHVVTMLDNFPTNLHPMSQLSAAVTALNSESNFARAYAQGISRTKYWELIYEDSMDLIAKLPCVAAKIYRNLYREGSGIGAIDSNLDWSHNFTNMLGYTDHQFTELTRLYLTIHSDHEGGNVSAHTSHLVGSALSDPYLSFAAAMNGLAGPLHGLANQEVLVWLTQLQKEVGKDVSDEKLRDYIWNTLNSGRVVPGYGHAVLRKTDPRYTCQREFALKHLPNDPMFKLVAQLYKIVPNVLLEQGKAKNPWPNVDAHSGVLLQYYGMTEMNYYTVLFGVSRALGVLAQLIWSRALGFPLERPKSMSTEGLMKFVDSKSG
Description: CS is localized within the mitochondrial matrix and is the key enzyme in the first step of the tricarboxylic acid (TCA) cycle that catalyzes the reaction between acetyl coenzyme A (acetyl CoA) and oxaloacetic acid to form citric acid. […] CS is responsible for the production of citrate in the TCA cycle that mediates mitochondrial aerobic respiration to affect the production of ATP production. Targeting at CS may be feasible to restore the abnormal expression of TCA cycle.

[4] = test system: NCI-H460 cells; experiment: Wound healing assay (cell migration); assay type: cell-based, human
Method: For wound healing assay in the present study, the cells were grown to approximately 80% confluence in 12-well plates in the complete growth medium and then a straight line was scraped at the central part of the each well by a 200 μL pipette tip. […] […] Each condition was performed in triplicate.

[5] = biological target: T2, TALDO1 (Homo sapiens, UniProt P37837); experiment: Tryptophan fluorescence quenching assay; conditions: Stern-Volmer analysis; read-out: Kd of AGB binding to TALDO1
T2 construct: endogenous in cells
T2 sequence (P37837 1-337): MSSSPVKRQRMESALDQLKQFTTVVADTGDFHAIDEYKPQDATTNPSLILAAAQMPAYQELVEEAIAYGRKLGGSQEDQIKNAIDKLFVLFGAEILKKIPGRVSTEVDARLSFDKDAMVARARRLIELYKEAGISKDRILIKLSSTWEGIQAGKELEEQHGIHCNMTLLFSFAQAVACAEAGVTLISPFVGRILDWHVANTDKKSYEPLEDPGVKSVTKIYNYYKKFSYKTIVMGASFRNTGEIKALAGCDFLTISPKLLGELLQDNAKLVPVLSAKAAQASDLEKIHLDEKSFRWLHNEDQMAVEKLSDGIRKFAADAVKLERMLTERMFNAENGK
Method: (§1) FIG. 5A is a volcano plot (ΔTm, p-value) for TPP data obtained from NCI-H460 cells with 4 μM AGB treatment for 1 h. The criteria were set as ΔTm>2° C. and p<0.05. FIG. 5B is a graph showing results of the tryptophan fluorescence quenching assay for the direct interaction between AGB and three target proteins. Upper, tryptophan fluorescence titration of recombinant proteins with AGB. […] For CS, its fluorescence decrease was saturated when AGB concentrations increased to about 32 μM. Lower, the normalized tryptophan intensities at an emission of 320 nm were plotted as a function of total added concentration of AGB. The dissociation constants (Kd) between AGB and three proteins were then calculated by fitting this plot with Stern-Volmer Equation. […] The fluorescence intensity was presented as percentage relative to control groups. […]
(§2) To further examine whether AGB interacts directly with the above three identified proteins, the intrinsic tryptophan fluorescence properties of these proteins were examined in the presence of AGB at different concentrations. Upon binding with AGB, proteins experience a change of the tryptophan environment, which can be visualized by fluorescence spectroscopy. As shown in FIG. 5B the tryptophan fluorescence of three proteins were all quenched by AGB in a concentration-dependent manner.

[6] = biological target: HSP60 (Homo sapiens, UniProt P10809); experiment: Tryptophan fluorescence quenching assay; conditions: Stern-Volmer analysis; read-out: Kd of AGB binding to HSP60
Sequence of HSP60 (P10809 27-573): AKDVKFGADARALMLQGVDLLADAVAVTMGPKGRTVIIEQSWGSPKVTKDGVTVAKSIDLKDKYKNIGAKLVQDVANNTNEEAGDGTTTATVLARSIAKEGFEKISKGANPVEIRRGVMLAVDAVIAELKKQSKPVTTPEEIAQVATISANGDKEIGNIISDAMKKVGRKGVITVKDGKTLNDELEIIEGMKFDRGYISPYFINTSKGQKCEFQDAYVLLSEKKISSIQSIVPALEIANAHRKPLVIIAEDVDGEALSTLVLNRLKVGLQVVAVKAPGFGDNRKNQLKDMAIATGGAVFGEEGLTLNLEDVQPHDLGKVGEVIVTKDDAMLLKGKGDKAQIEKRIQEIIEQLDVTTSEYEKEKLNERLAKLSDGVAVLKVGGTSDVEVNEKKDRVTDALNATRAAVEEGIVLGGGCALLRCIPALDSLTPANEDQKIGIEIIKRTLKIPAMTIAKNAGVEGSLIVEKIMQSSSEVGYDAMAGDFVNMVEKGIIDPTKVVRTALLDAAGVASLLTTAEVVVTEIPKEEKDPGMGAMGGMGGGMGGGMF
Method: as §1, §2

CCCC(=O)c1c(O)c(Cc2c(O)c(Cc3c(O)c(C)c(OC)c(C(=O)CCC)c3O)c(O)c(C(=O)[C@@H](C)CC)c2O)c(O)c(C)c1OC [AGB, Agrimol B]
AGB concentration over which colonies numbers were significantly reduced ([1]; 8 h treatment, colonies counted after two weeks): over 2.5 μM | concentration giving significant reduction of cell colony formation ([1]; clonogenicity assay): around 4 μM | inhibition at 1 µM ([2]; NCI-H460, primary tumorspheres): 40.6% | inhibition at 0.5 µM ([2]; NCI-H460, secondary tumorspheres, 0.5 μM AGB): 54.7% | inhibition at 1 µM ([2]; NCI-H460, secondary tumorspheres): 69.7% | AGB concentration at which a significant decrease in the enzyme activity was observed [3]: 5 µM | width of the scratch wound ([4]; 1 μM of AGB): significantly decreased | wound closure ([4]; 4 μM or 10 μM of AGB, 16 h and 32 h): wound closure was inhibited | concentration giving significant reduction of cell migration ([4]; wound healing assay): around 4 μM | Kd [5]: 22.7 µM | Kd [6]: 27 µM

— US20250162973A1, “METHODS OF SYNTHESIS AND USES OF AGRIMOL COMPOUNDS” (Versitech Limited, priority 2022, published 2025)
